Measured values taken from patent US20230240297A1, “SELECTIVE HERBICIDES BASED ON SUBSTITUTED ISOXAZOLIN CARBOXAMIDES AND CYPROSULFAMIDE” (Bayer Aktiengesellschaft, priority 2020, published 2023).

Columns and labels:
ZEAMA Sileno [1] = assay: Seed treatment with safener; post-emergence herbicide application; type: in vivo, maize; parameters: Reduction [Difference]: scale not given here; conditions: Final assessment; for Reduction [%] / Reduction [Difference]: Cyprosulfamide 0.5 g a.i./kg seed; for Reduction [Difference]: damage without safener - damage with safener; for HER effect + SAF (crop damage with safener): Cyprosulfamide seed treatment 0.5 g a.i./kg seed; for HER effect (crop damage, herbicide without safener): no safener
Experimental: For the safener seed treatment, sufficient seeds of the respective crops (spring wheat, TRZAS; spring barley, HORVS; maize, ZEAMA) were weighed into screw top glass bottles approximately twice the volume of the seeds.
The specified safeners, formulated as wettable powder (WP) were weighed out so that the specified rates (g a.i./kg seed) would be obtained, dissolved in water (1 ml water per 10 g of seeds), and added to the seeds to produce a slurry.
The bottles were capped and then placed in an overhead shaker (set at medium speed for ca. 60 minutes) so that the seeds were evenly coated with the slurry. The bottles were uncapped and the seeds were either placed on paper and dried for an interval of 3-4 hours prior to sowing, or directly sown. Seeds were placed in sandy loam soil in pots of a diameter of 7-8 cm, covered with soil, and cultivated in a greenhouse under good growth conditions.
Post-emergence application of the specified herbicides was done when the plants had reached growth stage BBCH11-13, on two sets of plants:
a) seed treatment with safener, as described above b) no safener treatment
The herbicides were formulated as WP and sprayed onto the green parts of the plants as an aqueous suspension at an equivalent water application rate of 300 1/ha, with addition of wetting agent and adjuvants (e.g. Mero, 1.5 1/ha; ammonium sulphate, 2 kg/ha)
After application, the test plants were kept in the greenhouse under good growth conditions.
Values in the table below are mean values of at least 2 replicates.

ZEAMA Sileno [2] = assay: Tank-mix; post-emergence, crop damage with and without safener; type: in vivo, maize; conditions: for HER effect + SAF / HER effect: Final assessment; for HER effect: no safener
Experimental: Seeds of crops (spring wheat, TRZAS; spring barley, HORVS; maize, ZEAMA) were placed in sandy loam soil in peat pots, covered with soil and cultivated in a greenhouse under good growth conditions. Two to three weeks after sowing, the test plants were treated at the 1 to 3-leaf stage. The herbicide/safener active compound combinations according to the invention, formulated as wettable powders or emulsion concentrates, and, in parallel tests, the correspondingly formulated individual active compounds were sprayed onto the green parts of the plants in various dosages using an amount of water of 300 1/ha (converted).
The pots were returned under good growing conditions in a glasshouse and a visual assessment of herbicidal effects was made at intervals from 1 to 3 weeks after herbicide application (DAT = days after treatment). Assessment was on a percentage basis in comparison with untreated control plants (0% = no injury, 100% = complete kill).

[3] = HER 8 g a.i./ha, cyprosulfamide 50 g a.i./ha
[4] = HER 32 g a.i./ha, cyprosulfamide 100 g a.i./ha
[5] = HER dose 8 g a.i./ha + cyprosulfamide 50 g a.i./ha tank-mix
[6] = HER dose 32 g a.i./ha + cyprosulfamide 100 g a.i./ha tank-mix

Row | Compound | Reduction [%] (ZEAMA Sileno [1]; HER dose 8 g a.i./ha) | Reduction [Difference] (ZEAMA Sileno [1]; HER dose 8 g a.i./ha) | HER effect + SAF (crop damage with safener) (ZEAMA Sileno [1]; HER dose 8 g a.i./ha) [%] | HER effect (crop damage, herbicide without safener) (ZEAMA Sileno [1]; HER dose 8 g a.i./ha) [%] | Reduction [%] (ZEAMA Sileno [1]; HER dose 32 g a.i./ha) | Reduction [Difference] (ZEAMA Sileno [1]; HER dose 32 g a.i./ha) | HER effect + SAF (crop damage with safener) (ZEAMA Sileno [1]; HER dose 32 g a.i./ha) [%] | HER effect (crop damage, herbicide without safener) (ZEAMA Sileno [1]; HER dose 32 g a.i./ha) [%] | Reduction [%] (ZEAMA Sileno [2]; [3]) | Reduction [Difference] (ZEAMA Sileno [2]; [3]) | Reduction [%] (ZEAMA Sileno [2]; [4]) | Reduction [Difference] (ZEAMA Sileno [2]; [4]) | HER effect + SAF (ZEAMA Sileno [2]; [5]) [%] | HER effect (ZEAMA Sileno [2]; HER dose 8 g a.i./ha) [%] | HER effect + SAF (ZEAMA Sileno [2]; [6]) [%] | HER effect (ZEAMA Sileno [2]; HER dose 32 g a.i./ha) [%] | Reduction [%] (ZEAMA Sileno [1]; HER dose 2 g a.i./ha) | Reduction [Difference] (ZEAMA Sileno [1]; HER dose 2 g a.i./ha) | HER effect + SAF (crop damage with safener) (ZEAMA Sileno [1]; HER dose 2 g a.i./ha) [%] | HER effect (crop damage, herbicide without safener) (ZEAMA Sileno [1]; HER dose 2 g a.i./ha) [%] | other results
1 | COC(=O)C1C=CC(NC(=O)C2(C)CC(c3cc(Cl)cc(C#N)c3)=NO2)C1 (mixture of isomers) [Example 1.23] | 100 | 50 | 0 | 50 | 96 | 67 | 3 | 70 | 60 | 30 | 67 | 47 | 20 | 50 | 23 | 70 | – | – | – | – | –
2 | CCOC(=O)C1=CCC(NC(=O)C2(C)CC(c3cccc(F)c3)=NO2)C1 (mixture of isomers) [Example 1.59] | 100 | 20 | 0 | 20 | 85 | 57 | 10 | 67 | 100 | 20 | 90 | 60 | 0 | 20 | 7 | 67 | – | – | – | – | –
3 | CC1(C(=O)NC2CC=C(C(=O)NS(C)(=O)=O)C2)CC(c2cc(F)cc(F)c2)=NO1 (mixture of isomers) [Example 1.61] | 57 | 47 | 35 | 82 | 44 | 40 | 50 | 90 | – | – | – | – | – | – | – | – | – | – | – | – | –
4 | C=CC1(C(=O)NC2COC(C(=O)OCCOC)C2)CC(c2cc(F)cc(F)c2)=NO1 (mixture of isomers) [Example 1.66] | 100 | 96 | 0 | 96 | 97 | 94 | 3 | 97 | 76 | 73 | 54 | 52 | 23 | 96 | 45 | 97 | 100 | 33 | 0 | 33 | Reduction [%] (ZEAMA Sileno [2]; HER 2 g a.i./ha, cyprosulfamide 50 g a.i./ha): 79%; Reduction [Difference] (ZEAMA Sileno [2]; HER 2 g a.i./ha, cyprosulfamide 50 g a.i./ha, damage without safener - damage with safener): 26; HER effect + SAF (ZEAMA Sileno [2]; HER dose 2 g a.i./ha + cyprosulfamide 50 g a.i./ha tank-mix): 7%; HER effect (ZEAMA Sileno [2]; HER dose 2 g a.i./ha, 0% = no injury, 100% = complete kill): 33%
5 | C=CCOC(=O)C1CC(NC(=O)C2(C)CC(c3cc(F)cc(F)c3)=NO2)CO1 (mixture of isomers) [Example 1.75] | 100 | 73 | 0 | 73 | 89 | 78 | 10 | 88 | 62 | 45 | 66 | 58 | 28 | 73 | 30 | 88 | – | – | – | – | –
6 | C=CC1(C(=O)NC2COC(C(=O)OCCCl)C2)CC(c2cc(F)cc(F)c2)=NO1 (mixture of isomers) [Example 1.82] | 89 | 83 | 10 | 93 | 84 | 77 | 15 | 92 | – | – | – | – | – | – | – | – | 100 | 28 | 0 | 28 | –
7 | C=CCOC(=O)C1CC(NC(=O)C2(C=C)CC(c3cc(F)cc(F)c3)=NO2)CO1 (mixture of isomers) [Example 1.83] | 100 | 62 | 0 | 62 | 96 | 82 | 3 | 85 | 73 | 45 | 73 | 62 | 17 | 62 | 23 | 85 | – | – | – | – | –
8 | COC(=O)C1(C)CC(NC(=O)C2(C(C)(F)F)CC(c3cc(F)cc(F)c3)=NO2)CO1 (mixture of isomers) [Example 1.94] | 100 | 91 | 0 | 91 | 93 | 87 | 7 | 94 | 89 | 81 | 76 | 71 | 10 | 91 | 23 | 94 | – | – | – | – | –
9 | COCCOC(=O)C1C=CC(NC(=O)C2(C(F)(F)F)CC(c3cc(F)cc(C#N)c3)=NO2)C1 (stereo not shown) [Example 1.2] | 89 | 80 | 10 | 90 | 81 | 78 | 18 | 96 | 44 | 40 | 48 | 46 | 50 | 90 | 50 | 96 | – | – | – | – | –
10 | COCCOC(=O)C1C=CC(NC(=O)C2(C)CC(c3cc(Cl)cc(C#N)c3)=NO2)C1 (stereo not shown) [Example 1.5] | 88 | 75 | 10 | 85 | 79 | 76 | 20 | 96 | 55 | 47 | 50 | 48 | 38 | 85 | 48 | 96 | 100 | 23 | 0 | 23 | –
